“And” between values parts separate entries of the source, which are not always exact repeats. Equal values may be shown once.
Test system: 422866-222-R5-J1-PDC complex spheroid viability
Assay: Anticancer human tumor 422866-222-R5-J1-PDC patient-derived pancreatic adenocarcinoma cell line growth inhibition [POLQ]
Settings: for viability, T/C: stronger effect = lower value
Experimental: Multicellular complex tumor spheroid response to Polymerase (POL) inhibitors (novobiocin, ART-558, RP6685) in combination with a variety of drugs and investigational agents in selected tumor cell lines
The POL inhibitors (novobiocin, ART-558, and RP6685) were evaluated both individually and in combination with standard of care and investigational anticancer small molecules within a complex spheroid model of solid tumors. . Complex spheroids include a stromal component modeled by human endothelial cells (HUVEC) and fibroblasts modeled by human mesenchymal stem cells (MSCs). The concentration ranges selected for each drug and investigational agent were based upon clinically achievable concentrations if the clinical Cmax of the agent was known.
Compounds. The drugs and investigational agents: novobiocin (NSC847541), ART-558 (NSC835418), RP-6685 (NSC848927), peposertib (NSC802822), ceralasertib (NSC780249), elimusertib (NSC800525), camonsertib (NSC841442), AZD-1390 (NSC803789), olaparib (NSC753686), talazoparib (NSC767125), rucaparib (NSC756644), sotorasib (NSC818433), MRTX-1133 (NSC836407), SN-38 (NSC673596), topotecan (NSC609699), epotoside (NSC141540), doxorubicin (NSC123127), gemcitabine (NSC613327), 5-fluorouracil (NSC19893), paclitaxel (NSC125973), vemurafenib (NSC761431), MSA-2 (NSC828583), SN-011 (NSC837082), adavosertib (NSC754352), prexasertib (NSC758257), carboplatin (NSC241240) and oxaliplatin (NSC266046), were obtained from the National Cancer Institute (NCI) Developmental Therapeutics Program Chemical Repository (21). The FDA-approved anticancer drug set is available from the Developmental Therapeutics Program at https://dtp.cancer.gov/organization/dscb/obtaining/. […] The stock solutions were prepared in dimethyl sulfoxide (DMSO, Sigma-Aldrich, St. Louis, MO, cat. D2650), except for the platinum compounds which were prepared in saline (Quality Biological, Gaithersburg, MD, cat. 114-055-101), at 800-fold the tested concentration and stored at -70 degrees C prior to their use. All drugs and investigational agents were tested over a range starting from a high concentration at or near the clinical Cmax and decreasing in half-log increments. If the clinical Cmax for an agent had not been determined, the highest concentration tested was 10 microM, except for SN-38, which was tested at a high concentration of 1 microM.
Cell Culture. All cells were maintained in an incubator at 37 degrees C and 5% CO2 with 95% humidity. The PDC lines were cultured according to standard operating procedures established by the NCI PDMR (https://pdmr.cancer.gov). Table 3 of the manuscript, lists the cell lines along with the number of the three cell types plated to form the mct-spheroids and media for tumor cell growth. After thawing, all PDC lines, except 997537-175-T-J1-PDC and 415267-285-R-J2-PDC, were cultured in Matrigel-coated flasks prepared with a working solution of 1X Ham's F-12 nutrient mix, without supplementation (Thermo Fisher Scientific, cat. 11765054), 100 U/mL penicillin-streptomycin (Thermo Fisher Scientific, cat. 15140122), and 2.5% Matrigel (Corning Inc., Corning, NY, cat. 354248) for the first three passages. The two PDC lines 997537-175-T-J1-PDC and 415267-285-R-J2-PDC were cultured on uncoated flasks. The 857933-349-R-J2-PDC line was cultured in 6C/Colon 1B media containing advanced DMEM/F-12 (Thermo Fisher Scientific, cat. 12634028), 10 mM HEPES (Thermo Fisher Scientific, cat. 15630080), 1X GlutaMAX supplement (Thermo Fisher Scientific, cat. 35050061), 0.1 mg/mL primocin (InvivoGen, San Diego, CA, cat. ant-pm-2), 10% defined fetal bovine serum, heat inactivated (HyClone Laboratories Inc., Logan, UT, cat. SH30070.03HI), 50% L-WRN conditioned media (ATCC, cat. CRL-3276), 1.25 mM N-Acetyl-L-cysteine (Sigma-Aldrich, cat. A9165), 10 mM nicotinamide (Sigma-Aldrich, cat. N0636), 1X B-27 supplement (Thermo Fisher Scientific, cat. 17504044), 1X N-2 supplement (Thermo Fisher Scientific, cat. […]

[1] = curve of first compound, second compound 0.0316 µM
[2] = curve of first compound, second compound 0.1 µM
[3] = curve of first compound, second compound 0.316 µM
[4] = curve of first compound, second compound 1 µM
[5] = curve of first compound, second compound 3.16 µM
[6] = curve of first compound, second compound 10 µM
[7] = second compound 0.0316 µM, first compound 0.0316 µM
[8] = second compound 0.0316 µM, first compound 0.1 µM
[9] = second compound 0.0316 µM, first compound 0.316 µM
[10] = second compound 0.0316 µM, first compound 1 µM
[11] = second compound 0.1 µM, first compound 0.0316 µM
[12] = second compound 0.1 µM, first compound 0.1 µM
[13] = second compound 0.1 µM, first compound 0.316 µM
[14] = second compound 0.1 µM, first compound 1 µM
[15] = second compound 0.316 µM, first compound 0.0316 µM
[16] = second compound 0.316 µM, first compound 0.1 µM
[17] = second compound 0.316 µM, first compound 0.316 µM
[18] = second compound 0.316 µM, first compound 1 µM
[19] = second compound 1 µM, first compound 0.0316 µM
[20] = second compound 1 µM, first compound 0.1 µM
[21] = second compound 1 µM, first compound 0.316 µM
[22] = second compound 1 µM, first compound 1 µM
[23] = second compound 3.16 µM, first compound 0.0316 µM
[24] = second compound 3.16 µM, first compound 0.1 µM
[25] = second compound 3.16 µM, first compound 0.316 µM
[26] = second compound 3.16 µM, first compound 1 µM
[27] = second compound 10 µM, first compound 0.0316 µM
[28] = second compound 10 µM, first compound 0.1 µM
[29] = second compound 10 µM, first compound 0.316 µM
[30] = second compound 10 µM, first compound 1 µM
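Note: spheroids exposed to compounds for one week before readout.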
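Throughout, for viability, T/C: percent of DMSO vehicle wells luminescence so 100% = untreated viability.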

Structure (SMILES): C=CCn1c(=O)c2cnc(Nc3ccc(N4CCN(C)CC4)cc3)nc2n1-c1cccc(C(C)(C)O)n1 + Nc1ccc(C#CCN(C(=O)Cc2ncc(C(F)(F)F)cc2C(F)(F)F)c2ccc(F)cc2)nn1
- IC50 [1]: 290 nM
- IC50 [2]: 270 nM
- IC50 [3]: 252 nM
- IC50 [4]: 311 nM
- IC50 [5]: 251 nM
- IC50 [6]: 257 nM
- viability, T/C (second compound 0.0316 µM, first compound 0.00316 µM): 88%
- viability, T/C (second compound 0.0316 µM, first compound 0.01 µM): 96.6%
- viability, T/C [7]: 92.1%
- viability, T/C [8]: 79.7%
- viability, T/C [9]: 47.8%
- viability, T/C [10]: 33.7%
- viability, T/C (second compound 0.1 µM, first compound 0.00316 µM): 98%
- viability, T/C (second compound 0.1 µM, first compound 0.01 µM): 102%
- viability, T/C [11]: 98.2%
- viability, T/C [12]: 80.8%
- viability, T/C [13]: 45.2%
- viability, T/C [14]: 32.8%
- viability, T/C (second compound 0.316 µM, first compound 0.00316 µM): 97%
- viability, T/C (second compound 0.316 µM, first compound 0.01 µM): 89.7%
- viability, T/C [15]: 99.7%
- viability, T/C [16]: 71.9%
- viability, T/C [17]: 46.5%
- viability, T/C [18]: 34.6%
- viability, T/C (second compound 1 µM, first compound 0.00316 µM): 97.6%
- viability, T/C (second compound 1 µM, first compound 0.01 µM): 91.4%
- viability, T/C [19]: 115%
- viability, T/C [20]: 76.2%
- viability, T/C [21]: 53.5%
- viability, T/C [22]: 34.3%
- viability, T/C (second compound 3.16 µM, first compound 0.00316 µM): 78.1%
- viability, T/C (second compound 3.16 µM, first compound 0.01 µM): 97.1%
- viability, T/C [23]: 128%
- viability, T/C [24]: 69.5%
- viability, T/C [25]: 53.6%
- viability, T/C [26]: 36.6%
- viability, T/C (second compound 10 µM, first compound 0.00316 µM): 106%
- viability, T/C (second compound 10 µM, first compound 0.01 µM): 104%
- viability, T/C [27]: 103%
- viability, T/C [28]: 78.7%
- viability, T/C [29]: 44%
- viability, T/C [30]: 35.7%

Structure (SMILES): Cn1ncnc1[C@H]1c2n[nH]c(=O)c3cc(F)cc(c23)N[C@@H]1c1ccc(F)cc1
- viability, T/C (compound 0.000316 µM): 105% and 98.6% and 90.6%
- viability, T/C (compound 0.001 µM): 94.4% and 84.4% and 82.5%
- viability, T/C (compound 0.00316 µM): 95.8% and 100% and 84.7%
- viability, T/C (compound 0.01 µM): 102% and 89.2% and 106%
- viability, T/C (compound 0.0316 µM): 96.2% and 89.7% and 91.1%
- viability, T/C (compound 0.1 µM): 82.2% and 98.5% and 82.5%
- IC50 (curve of compound): > 100 nM

Structure (SMILES): CCc1cc2c(N3CCc4c(cc(Cn5ccnc5)cc4-c4cn(C)nc4C(F)(F)F)C3=O)cc(C)nc2c(OC)n1 + COC1C(OC(N)=O)C(O)C(Oc2ccc3c(O)c(NC(=O)c4ccc(O)c(CC=C(C)C)c4)c(=O)oc3c2C)OC1(C)C
- IC50 [1]: > 10000 nM
- IC50 [2]: > 10000 nM
- IC50 [3]: > 10000 nM
- IC50 [4]: > 10000 nM
- IC50 [5]: > 10000 nM
- IC50 [6]: > 10000 nM
- viability, T/C [7]: 96.1%
- viability, T/C [8]: 95.7%
- viability, T/C [9]: 92.4%
- viability, T/C [10]: 129%
- viability, T/C (second compound 0.0316 µM, first compound 3.16 µM): 125%
- viability, T/C (second compound 0.0316 µM, first compound 10 µM): 119%
- viability, T/C [11]: 100%
- viability, T/C [12]: 88.8%
- viability, T/C [13]: 94.6%
- viability, T/C [14]: 126%
- viability, T/C (second compound 0.1 µM, first compound 3.16 µM): 110%
- viability, T/C (second compound 0.1 µM, first compound 10 µM): 93.7%
- viability, T/C [15]: 93.7%
- viability, T/C [16]: 94.5%
- viability, T/C [17]: 108%
- viability, T/C [18]: 102%
- viability, T/C (second compound 0.316 µM, first compound 3.16 µM): 102%
- viability, T/C (second compound 0.316 µM, first compound 10 µM): 111%
- viability, T/C [19]: 97.7%
- viability, T/C [20]: 98%
- viability, T/C [21]: 96.5%
- viability, T/C [22]: 92.8%
- viability, T/C (second compound 1 µM, first compound 3.16 µM): 121%
- viability, T/C (second compound 1 µM, first compound 10 µM): 108%
- viability, T/C [23]: 102%
- viability, T/C [24]: 101%
- viability, T/C [25]: 123%
- viability, T/C [26]: 106%
- viability, T/C (second compound 3.16 µM, first compound 3.16 µM): 123%
- viability, T/C (second compound 3.16 µM, first compound 10 µM): 116%
- viability, T/C [27]: 102%
- viability, T/C [28]: 85.6%
- viability, T/C [29]: 106%
- viability, T/C [30]: 95.1%
- viability, T/C (second compound 10 µM, first compound 3.16 µM): 109%
- viability, T/C (second compound 10 µM, first compound 10 µM): 102%
